In patent US4743541A, “Luminescent substrate preparation and its use in specific binding assays” (priority 1985, dated 1988):
Where two headings read alike, the source gives them in different places.

Molecular target: T1, horseradish peroxidase (HRP) (Armoracia rusticana, UniProt P00433)
T1 sequence (P00433 31-353): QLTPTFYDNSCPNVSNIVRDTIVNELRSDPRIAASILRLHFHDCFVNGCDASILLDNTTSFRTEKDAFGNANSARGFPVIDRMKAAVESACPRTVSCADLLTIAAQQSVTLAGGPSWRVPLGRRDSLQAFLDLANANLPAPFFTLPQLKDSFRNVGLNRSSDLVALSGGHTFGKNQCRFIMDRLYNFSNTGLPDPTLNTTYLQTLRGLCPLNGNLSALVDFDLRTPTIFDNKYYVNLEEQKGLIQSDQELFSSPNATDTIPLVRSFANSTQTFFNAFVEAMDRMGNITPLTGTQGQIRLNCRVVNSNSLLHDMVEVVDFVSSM
Experimental: A standardized test procedure for measuring luminol light output has been established. To 0.5 ml of 50 mM borate buffer, pH 9.4, are added 0.5 ml of 40 mM luminol in 45 mM NaOH, pH 11.0; 0.5 ml of 4 mM hydrogen peroxide in 0.01M phosphate buffered saline (PBS), pH 7.0; 0.4 ml of deionized water; and 0.1 ml of 200 mU/ml horseradish peroxidase (HRP) to yield a final 2.0 ml volume containing; 10 mM luminol; 1 mM H2 O2; 12.5 mM borate buffer, pH 9.4; and 20 mU HRP in an aqueous solution having a final pH of 9.4. The enzyme HRP is added last, the solution mixed and relative intensity readings taken on an Ames Fluorocolorimeter (Miles Labs, Inc., Elkhart, IN) at various time points from 1 minute to 2 hours.
The chemical synthesis of luminol and other luminescent substrates use chemicals which can inhibit the catalysts used in luminescent reactions. Two of these inhibitory chemicals known to be used in luminol synthesis were added back to a luminescent reaction using the luminol prepared in Example 1 above.

Compound | Amount in the luminol that can inhibit the production of light | Effect on luminescence yield in the reaction (in words) | Effect on luminescence yield in the reaction | % Reaction (hrp luminol luminescence, pH 9.4, 30 min)
ammonium sulfide | greater than 100 ppm | drastically inhibits | – | –
N.N.O=S(=O)(O)O [Ammonium Sulfate, ammonium sulfate] | – | – | had no effect | 100%
NN.O=S(=O)(O)O [Hydrazine Sulfate, hydrazine sulfate] | greater than 100 ppm | drastically inhibits | – | –
